Test results as given in US8193185B2, “Use of tryptanthrin compounds for immune potentiation” (Novartis Vaccines and Diagnostics, Inc., priority 2003, dated 2012).

System: human peripheral blood mononuclear cells (PBMC)
Assay: HTS assay for small molecule immune potentiators: TNF-a production by human PBMC (sandwich ELISA)
Assay type: cell-based
Details: human PBMC 500,000 per mL, 18 h at 37° C., secreted TNF by sandwich ELISA
Excerpt: Candidate small molecule immune potentiators can be identified in vitro. Compounds are screened in vitro for their ability to stimulate human peripheral blood mononuclear cells to produce cytokines (e.g. TNF-a and IL-12 p40). Apoptosis inducing small molecules may be identified having this activity. These small molecule immunopotentiators have potential utility as adjuvants and immunotherapeutics.
In an assay procedure (High Throughput Screening (HTS)) for small molecule immune potentiators (SMIPs), human peripheral blood mononuclear cells (PBMC), 500,000 per mL in RPMI 1640 medium with 10% FCS, are distributed in 96 well plates (100,000 per well) already containing 5 μM of compound in DMSO. The PBMCs are incubated for 18 h at 37° C. in 5% CO2. Their ability to produce cytokines in response to the small molecule compounds is determined using a modified sandwich ELISA.
Briefly supernatants from the PBMC cultures are assayed for secreted TNF using a primary plate bound antibody for capture followed by a secondary biotinylated anti-TNF antibody forming a sandwich. The biotinylated second antibody is then detected using streptavidin-Europium and the amount of bound europium is determined by time resolved fluorescence. Compounds are screened for their TNF inducing activity that is measured in the assay as increased Europim counts over cells incubated in RPMI medium alone. “Hits” are selected based on their TNF-inducing activity relative to an optimal dose of lipopolysaccaride LPS (1 μg/ml), a strong TNF inducer. The robustness of the assay and low backgrounds have allowed for the routine selection of hits with ˜10% of LPS activity that is normally between 5-10× background (cells alone). Selected hits are then subjected to confirmation for their ability to induce cytokines from multiple donors at decreasing concentrations. Those compounds with consistent activity at or below 5 μM are considered confirmed for the purposes of this assay. The assay is readily modified for screening for compounds effective at higher or lower concentrations.

O=C1c2cc(I)ccc2-n2c1nc1ccc(I)cc1c2=O [Compound 1042, 2,8-diiodoindolo[2,1-b]quinazoline-6,12-dione]
minimal effective concentration: ≥ 20 µM

O=C1c2cc(I)ccc2-n2c1nc1c(I)cc(I)cc1c2=O [Compound 1043, 2,4,8-triiodoindolo[2,1-b]quinazoline-6,12-dione]
minimal effective concentration: ≥ 20 µM

O=C1c2cc(F)ccc2-n2c1nc1c(OCc3ccccc3)cccc1c2=O [Compound 1044, 8-fluoro-4-[(phenylmethyl)oxy]indolo [2,1-b]quinazoline-6,12-dione]
minimal effective concentration: ≥ 20 µM

O=C1c2cc(Cl)ccc2-n2c1nc1cc(N3CCOCC3)ccc1c2=O [Compound 1045, 8-chloro-3-morpholin-4-ylindolo[2,1-b]quinazoline-6,12-dione]
minimal effective concentration: ≥ 20 µM

O=C1c2cc(C(F)(F)F)ccc2-n2c1nc1ccccc1c2=O [Compound 1046, 8-(trifluoromethyl)indolo[2,1-b]quinazoline-6,12-dione]
minimal effective concentration: ≥ 20 µM

CN(CC(=O)O)c1ccc2c(=O)n3c(nc2c1)C(=O)c1cc(Cl)ccc1-3 [Compound 1047, [(8-chloro-6,12-dioxo-6,12-dihydroindolo[2,1-b]quinazolin-3-yl)(methyl)amino]acetic acid]
minimal effective concentration: ≥ 20 µM

CN(CCOC(=O)CCC(=O)O)c1ccc2c(=O)n3c(nc2c1)C(=O)c1cc(Cl)ccc1-3 [Compound 1048, 4-({2-[(8-chloro-6,12-dioxo-6,12-dihydroindolo[2,1-b]quinazolin-3-yl)(methyl)amino]ethyl}oxy)-4-oxobutanoic acid]
minimal effective concentration: ≥ 20 µM

CCCCCCCC(=O)OCCN(C)c1ccc2c(=O)n3c(nc2c1)C(=O)c1cc(Cl)ccc1-3 [Compound 1049, 2-[(8-chloro-6,12-dioxo-6,12-dihydroindolo[2,1-b]quinazolin-3-yl)(methyl)amino]ethyl octanoate]
minimal effective concentration: ≥ 20 µM

CN(CCO)c1ccc2c(=O)n3c(nc2c1)C(=O)c1cc(OC(F)(F)F)ccc1-3 [Compound 1050, 3-[(2-hydroxyethyl)(methyl)a-mino]-8-[(trifluoromethyl)oxy]indol o[2,1-b]quinazoline-6,12-dione]
minimal effective concentration: ≥ 20 µM

O=C1c2cc(Cl)ccc2-n2c1nc1cc(SCCO)ccc1c2=O [Compound 1051, 8-chloro-3-[(2-hydroxyethyl)thio]indolo[2,1-b]quinazoline-6,12-dione]
minimal effective concentration: ≥ 20 µM

CC(=O)OCCCCCCc1ccc2c(c1)C(=O)c1nc3ncccc3c(=O)n1-2 [Compound 1052, 6-(5,11-dioxo-5,11-dihydropyrido[2′,3′:4,5]py-rimido[1,2-a]indol-9-yl)hexyl acetate]
minimal effective concentration: ≥ 20 µM
